The text below walks through data of ChEMBL document CHEMBL2046397, “Design and synthesis of 5-(substituted benzylidene)thiazolidine-2,4-dione derivatives as novel tyrosinase inhibitors” (Eur J Med Chem, 2012).

Usually IC50 stands for the concentration that inhibits the measured activity by half. High values mean lower potency, low ones higher potency.

One data set addresses T1, Tyrosinase (Agaricus bisporus, UniProt O42713).
T1 sequence (O42713 whole entry): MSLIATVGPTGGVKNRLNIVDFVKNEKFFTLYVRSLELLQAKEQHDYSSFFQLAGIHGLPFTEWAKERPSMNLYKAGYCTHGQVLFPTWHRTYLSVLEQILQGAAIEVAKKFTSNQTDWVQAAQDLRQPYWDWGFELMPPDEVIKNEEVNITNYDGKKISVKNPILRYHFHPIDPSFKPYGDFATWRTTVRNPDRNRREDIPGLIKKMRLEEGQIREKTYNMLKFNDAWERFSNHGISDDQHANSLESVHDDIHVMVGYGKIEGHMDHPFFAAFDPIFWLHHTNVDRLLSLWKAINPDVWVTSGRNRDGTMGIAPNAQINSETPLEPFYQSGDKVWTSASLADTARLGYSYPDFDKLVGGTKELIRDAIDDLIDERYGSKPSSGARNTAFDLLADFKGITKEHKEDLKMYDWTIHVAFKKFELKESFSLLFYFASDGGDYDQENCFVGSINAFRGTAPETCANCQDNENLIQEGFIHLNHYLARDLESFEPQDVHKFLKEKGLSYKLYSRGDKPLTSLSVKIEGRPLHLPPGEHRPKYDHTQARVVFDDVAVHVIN
As to the kind of experiment: Inhibition of mushroom tyrosinase activity using L-tyrosine as substrate after 30 mins by spectrophotometric analysis.

The test system of data set [1] is B16. Description: Antimelanogenic activity in mouse B16 cells assessed as inhibition of alpha-MSH-induced melanin formation after 24 hrs by spectrophotometric assay. The format is functional, cell-based.
Data set [2] concerns the target T2, Tyrosinase (Agaricus bisporus) (UniProt O42713).
T2 sequence (whole entry): T1 sequence (O42713 whole entry)
As to the kind of experiment: Competitive inhibition of mushroom tyrosinase using L-tyrosine as substrate at 20 uM by Line-Weaver-Burk plot analysis.

Data set [3] has as its target T2, Tyrosinase (Agaricus bisporus). Description: Competitive inhibition of mushroom tyrosinase using L-tyrosine as substrate at 1.25 uM by Line-Weaver-Burk plot analysis.
Data set [4] shares this target. Description: Competitive inhibition of mushroom tyrosinase using L-tyrosine as substrate assessed increase in Km L-tyrosine by Line-Weaver-Burk plot analysis.
In data set [5] the test system is B16. Description: Cytotoxicity against mouse B16 cells at 0.1 to 10 uM after 8 hrs by MTT assay. The note with it: b16, 8 h. The format is cell-based. (In general: Tetrazolium assays rely on reduction of a dye to a coloured formazan, in cell work by metabolically active cells.)
Data set [6] addresses T3, Tyrosinase (Mus musculus) (UniProt P11344).
T3 sequence (whole entry): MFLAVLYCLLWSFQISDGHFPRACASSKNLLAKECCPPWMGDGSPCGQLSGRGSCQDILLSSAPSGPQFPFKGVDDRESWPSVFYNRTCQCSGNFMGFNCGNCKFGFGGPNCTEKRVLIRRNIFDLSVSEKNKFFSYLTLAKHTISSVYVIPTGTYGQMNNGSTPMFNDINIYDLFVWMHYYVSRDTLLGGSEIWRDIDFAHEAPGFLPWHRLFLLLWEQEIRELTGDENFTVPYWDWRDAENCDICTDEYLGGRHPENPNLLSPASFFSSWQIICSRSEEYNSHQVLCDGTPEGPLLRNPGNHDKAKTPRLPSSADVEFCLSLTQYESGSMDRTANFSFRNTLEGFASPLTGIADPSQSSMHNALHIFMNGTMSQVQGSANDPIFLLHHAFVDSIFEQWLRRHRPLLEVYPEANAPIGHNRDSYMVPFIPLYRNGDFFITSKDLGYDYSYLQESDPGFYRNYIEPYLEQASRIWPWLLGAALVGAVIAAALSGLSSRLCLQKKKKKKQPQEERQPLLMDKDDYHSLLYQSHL
As to the kind of experiment: Inhibition of MSHalpha-stimulated tyrosinase activity in mouse B16 cells using L-DOPA as substrate after 24 hrs by […]. In kind it is cell-based. (In general: In an ELISA, binding on a coated surface is turned into a signal by an enzyme label.)

Activity calls are given as the source filed them. No cut-off for these calls is given here.

Compound `COc1ccc(/C=C2\SC(=O)NC2=O)cc1O` showed an IC50 on Tyrosinase of 9.87 µM. Further, the inhibition result in the data set with B16 [1] was “Dose-dependent effect”. In addition, the Kic in data set [2] was 1.38 µM; in data set [3], 4.13 ×10⁻⁷ M. Besides, the inhibition result in data set [4] and in data set [6] was “Active” each time. Further, in the data set with B16 [5], the Activity result was “Non-toxic”.

`O=C1NC(=O)/C(=C/c2ccc(O)cc2)S1` came in with a half-inhibitory concentration (IC50) against Tyrosinase of 13.4 µM. Moreover, the inhibition entry with B16 [1] is “Dose-dependent effect”. The Kic in data set [2] was 0.84 µM; in data set [3], 3.74 ×10⁻⁷ M. In addition, the inhibition entry in data set [4] and in data set [6] was “Active” in each case. Further, in the data set on B16 [5], the Activity entry is reported as “Non-toxic”.
